# Read-outs that look alike come from different tables or passages of the source.
# What was measured:
# Hirsutella rhossiliensis = settings: for Growth rate mm-in-diam, on agar: named vitamin excluded from medium with all other vitamins; for Growth rate mm-in-diam, on agar / Sporulation 10^3/cm^2, on agar / growth in liquit culture (visual rating): 5 weeks; for Spore germination %, on agar / Sporulation 10^3/cm^2, on agar / growth in liquit culture (visual rating): named vitamin excluded
# soybean cyst nematode = test: 1998 field trial (Waseca): SCN population, fungal parasitism, soybean growth; assay type: in vivo, Heterodera glycines
# Method: (§1) A field experiment was conducted at one site in Waseca in 1998. Fungi used in this study included three species of egg-parasitic fungi, Verticillium chlamydosporium from Florida, ARF18 from Arkansas, and Cylindrocarpon destructans from Minnesota, and two species of juvenile-parasitic fungi, Hirsutella rhossiliensis and Hirsutella minnesotensis from Minnesota. The fungi were cultured on corn-grits, applied in furrow and mixed into soil. Additionally, aldicarb (nematicide) and lorsban (insecticide) were included for a comparison purpose. Plots applied with fungal culture medium, without addition of the culture medium, and plots with a resistant cultivar Pioneer 9234 were included as controls. Each plot consisted of two rows with row spacing of 30 inches and row length of 15 feet. The plots were separated by four rows without application of agents. Four replicates were used. Nematode egg density at planting, and egg density and juvenile density 2 months after planting and at harvest were determined. […] Levels of fungal parasitism of nematode eggs and juveniles were measured 2 months after planting and at harvest.
# Heterodera glycines = assay type: in vivo
# Method: as §1
# Other procedures applied in 2000 were the same as used in 1999.
compound,measurement,setting,value
CC(C)(CO)C(O)C(=O)NCCC(=O)O (racemic) [DL-pantothenic acid],"Growth rate mm-in-diam, on agar",Hirsutella rhossiliensis; isolate ATCC46487,39.5 mm-in-diam
same,"Growth rate mm-in-diam, on agar",Hirsutella rhossiliensis; isolate JA16-1,18.8 mm-in-diam
same,"Growth rate mm-in-diam, on agar",Hirsutella rhossiliensis; isolate OWVT-1,29.3 mm-in-diam
same,"Spore germination %, on agar",Hirsutella rhossiliensis; isolate ATCC46487,72.2%
same,"Sporulation 10^3/cm^2, on agar",Hirsutella rhossiliensis; isolate ATCC46487,28.6 10^3/cm^2
same,"Spore germination %, on agar",Hirsutella rhossiliensis; isolate JA16-1,88.9%
same,"Sporulation 10^3/cm^2, on agar",Hirsutella rhossiliensis; isolate JA16-1,17.1 10^3/cm^2
same,growth in liquit culture (visual rating),Hirsutella rhossiliensis; isolate JA16-1,I
same,"Spore germination %, on agar",Hirsutella rhossiliensis; isolate OWVT-1,55.6%
same,"Sporulation 10^3/cm^2, on agar",Hirsutella rhossiliensis; isolate OWVT-1,9.9 10^3/cm^2
Nc1nc2ncc(CNc3ccc(C(=O)N[C@@H](CCC(=O)O)C(=O)O)cc3)nc2c(=O)[nH]1 [Folic acid],"Growth rate mm-in-diam, on agar",Hirsutella rhossiliensis; isolate ATCC46487,39.3 mm-in-diam
same,"Growth rate mm-in-diam, on agar",Hirsutella rhossiliensis; isolate JA16-1,19.7 mm-in-diam
same,"Growth rate mm-in-diam, on agar",Hirsutella rhossiliensis; isolate OWVT-1,28.7 mm-in-diam
same,"Spore germination %, on agar",Hirsutella rhossiliensis; isolate ATCC46487,82.2%
same,"Sporulation 10^3/cm^2, on agar",Hirsutella rhossiliensis; isolate ATCC46487,59.7 10^3/cm^2
same,"Spore germination %, on agar",Hirsutella rhossiliensis; isolate JA16-1,87.8%
same,"Sporulation 10^3/cm^2, on agar",Hirsutella rhossiliensis; isolate JA16-1,24.2 10^3/cm^2
same,growth in liquit culture (visual rating),Hirsutella rhossiliensis; isolate JA16-1,I
same,"Spore germination %, on agar",Hirsutella rhossiliensis; isolate OWVT-1,61.1%
same,"Sporulation 10^3/cm^2, on agar",Hirsutella rhossiliensis; isolate OWVT-1,15.4 10^3/cm^2
O=C(O)CCCC[C@@H]1SC[C@@H]2NC(=O)N[C@@H]21 [d-Biotin (V.H)],"Growth rate mm-in-diam, on agar",Hirsutella rhossiliensis; isolate ATCC46487,39.7 mm-in-diam
same,"Growth rate mm-in-diam, on agar",Hirsutella rhossiliensis; isolate JA16-1,16.3 mm-in-diam
same,"Growth rate mm-in-diam, on agar",Hirsutella rhossiliensis; isolate OWVT-1,27.7 mm-in-diam
same,"Spore germination %, on agar",Hirsutella rhossiliensis; isolate ATCC46487,80.0%
same,"Sporulation 10^3/cm^2, on agar",Hirsutella rhossiliensis; isolate ATCC46487,29.5 10^3/cm^2
same,"Spore germination %, on agar",Hirsutella rhossiliensis; isolate JA16-1,90.0%
same,"Sporulation 10^3/cm^2, on agar",Hirsutella rhossiliensis; isolate JA16-1,14.1 10^3/cm^2
same,growth in liquit culture (visual rating),Hirsutella rhossiliensis; isolate JA16-1,I
same,"Spore germination %, on agar",Hirsutella rhossiliensis; isolate OWVT-1,50.0%
same,"Sporulation 10^3/cm^2, on agar",Hirsutella rhossiliensis; isolate OWVT-1,11.7 10^3/cm^2
"Cc1cc2nc3c(=O)[nH]c(=O)nc-3n(C[C@H](O)[C@H](O)[C@H](O)CO)c2cc1C [Riboflavin, UPS (VB2)]","Growth rate mm-in-diam, on agar",Hirsutella rhossiliensis; isolate ATCC46487,41.0 mm-in-diam
same,"Growth rate mm-in-diam, on agar",Hirsutella rhossiliensis; isolate JA16-1,20.2 mm-in-diam
same,"Growth rate mm-in-diam, on agar",Hirsutella rhossiliensis; isolate OWVT-1,30.2 mm-in-diam
same,"Spore germination %, on agar",Hirsutella rhossiliensis; isolate ATCC46487,91.1%
same,"Sporulation 10^3/cm^2, on agar",Hirsutella rhossiliensis; isolate ATCC46487,30.6 10^3/cm^2
same,"Spore germination %, on agar",Hirsutella rhossiliensis; isolate JA16-1,85.6%
same,"Sporulation 10^3/cm^2, on agar",Hirsutella rhossiliensis; isolate JA16-1,13.2 10^3/cm^2
same,growth in liquit culture (visual rating),Hirsutella rhossiliensis; isolate JA16-1,I
same,"Spore germination %, on agar",Hirsutella rhossiliensis; isolate OWVT-1,60.0%
same,"Sporulation 10^3/cm^2, on agar",Hirsutella rhossiliensis; isolate OWVT-1,11.1 10^3/cm^2
same,growth in liquit culture (visual rating),Hirsutella rhossiliensis; isolate OWVT-1,I
"CNC(=O)O/N=C/C(C)(C)SC [Aldicarb, aldicarb]","% J2 parasitized, End season",soybean cyst nematode; in vivo,4%
same,"% J2 parasitized, Midseason",soybean cyst nematode; in vivo,0%
same,"Egg population, At planting, Eggs/100 cm^3 soil",soybean cyst nematode; in vivo,772 Eggs/100 cm^3 soil
same,"Egg population, End season, % Reduction",soybean cyst nematode; in vivo,64%
same,"Egg population, End season, Eggs/100 cm^3 soil",soybean cyst nematode; in vivo,"4,788 Eggs/100 cm^3 soil"
same,"Egg population, Midseason, % Reduction",soybean cyst nematode; in vivo,58%
same,"Egg population, Midseason, Eggs/100 cm^3 soil",soybean cyst nematode; in vivo,"1,200 Eggs/100 cm^3 soil"
same,"Juvenile (J2) population, End season, % Reduction",soybean cyst nematode; in vivo,66%
same,"Juvenile (J2) population, End season, J2/100 cm^3 soil",soybean cyst nematode; in vivo,98
same,"Juvenile (J2) population, Midseason, % Reduction",soybean cyst nematode; in vivo,54%
same,"Juvenile (J2) population, Midseason, J2/100 cm^3 soil",soybean cyst nematode; in vivo,129
same,Plant growth: Emergence rate (%),soybean cyst nematode; in vivo,88.4%
same,Reproduction rate Pf/Pi,soybean cyst nematode; in vivo,6.5
same,Reproduction rate Pf/Pm,soybean cyst nematode; in vivo,4.5
same,Reproduction rate Pm/Pi,soybean cyst nematode; in vivo,1.6
same,Plant growth: Yield (Bul/Acre),"soybean cyst nematode; soybean, 1998 field plots, 1200 g ai/acre",23.0 Bul/Acre
same,"% J2 parasitizd, Midseason",Heterodera glycines; in vivo,12.9a %
same,"Eggs/100 cc soil, At harvest",Heterodera glycines; in vivo,"13,975b Eggs/100 cc soil"
same,"Eggs/100 cc soil, Midseason",Heterodera glycines; in vivo,"1,166bc Eggs/100 cc soil"
same,"J2/100 cc soil, Midseason",Heterodera glycines; in vivo,141bc
same,Yield bu/A,"Heterodera glycines; soybean, 2000 field plots, means of four replicates",55.5a bu/A
O[C@H]1[C@H](O)[C@@H](O)[C@H](O)[C@@H](O)[C@H]1O [myo-inositol],"Growth rate mm-in-diam, on agar",Hirsutella rhossiliensis; isolate ATCC46487,40.8 mm-in-diam
same,"Growth rate mm-in-diam, on agar",Hirsutella rhossiliensis; isolate JA16-1,18.3 mm-in-diam
same,"Growth rate mm-in-diam, on agar",Hirsutella rhossiliensis; isolate OWVT-1,31.5 mm-in-diam
same,"Spore germination %, on agar",Hirsutella rhossiliensis; isolate ATCC46487,72.2%
same,"Sporulation 10^3/cm^2, on agar",Hirsutella rhossiliensis; isolate ATCC46487,41.9 10^3/cm^2
same,"Spore germination %, on agar",Hirsutella rhossiliensis; isolate JA16-1,84.4%
same,"Sporulation 10^3/cm^2, on agar",Hirsutella rhossiliensis; isolate JA16-1,16.7 10^3/cm^2
same,growth in liquit culture (visual rating),Hirsutella rhossiliensis; isolate JA16-1,I
same,"Spore germination %, on agar",Hirsutella rhossiliensis; isolate OWVT-1,64.4%
same,"Sporulation 10^3/cm^2, on agar",Hirsutella rhossiliensis; isolate OWVT-1,8.3 10^3/cm^2
Nc1ccc(C(=O)O)cc1 [p-Amino-benzoic acid (PABA)],"Growth rate mm-in-diam, on agar",Hirsutella rhossiliensis; isolate ATCC46487,41.5 mm-in-diam
same,"Growth rate mm-in-diam, on agar",Hirsutella rhossiliensis; isolate JA16-1,16.7 mm-in-diam
same,"Growth rate mm-in-diam, on agar",Hirsutella rhossiliensis; isolate OWVT-1,28.3 mm-in-diam
same,"Spore germination %, on agar",Hirsutella rhossiliensis; isolate ATCC46487,82.2%
same,"Sporulation 10^3/cm^2, on agar",Hirsutella rhossiliensis; isolate ATCC46487,29.9 10^3/cm^2
same,"Spore germination %, on agar",Hirsutella rhossiliensis; isolate JA16-1,84.4%
same,"Sporulation 10^3/cm^2, on agar",Hirsutella rhossiliensis; isolate JA16-1,35.1 10^3/cm^2
same,growth in liquit culture (visual rating),Hirsutella rhossiliensis; isolate JA16-1,I
same,"Spore germination %, on agar",Hirsutella rhossiliensis; isolate OWVT-1,51.1%
same,"Sporulation 10^3/cm^2, on agar",Hirsutella rhossiliensis; isolate OWVT-1,14.2 10^3/cm^2
O=C(O)c1cccnc1 [Nicotinic acid],"Growth rate mm-in-diam, on agar",Hirsutella rhossiliensis; isolate ATCC46487,40.5 mm-in-diam
same,"Growth rate mm-in-diam, on agar",Hirsutella rhossiliensis; isolate JA16-1,20.0 mm-in-diam
same,"Growth rate mm-in-diam, on agar",Hirsutella rhossiliensis; isolate OWVT-1,27.7 mm-in-diam
same,"Spore germination %, on agar",Hirsutella rhossiliensis; isolate ATCC46487,77.8%
same,"Sporulation 10^3/cm^2, on agar",Hirsutella rhossiliensis; isolate ATCC46487,30.1 10^3/cm^2
same,"Spore germination %, on agar",Hirsutella rhossiliensis; isolate JA16-1,94.4%
same,"Sporulation 10^3/cm^2, on agar",Hirsutella rhossiliensis; isolate JA16-1,12.2 10^3/cm^2
same,growth in liquit culture (visual rating),Hirsutella rhossiliensis; isolate JA16-1,I
same,"Spore germination %, on agar",Hirsutella rhossiliensis; isolate OWVT-1,57.8%
same,"Sporulation 10^3/cm^2, on agar",Hirsutella rhossiliensis; isolate OWVT-1,10.7 10^3/cm^2
Cc1ncc(CO)c(CO)c1O [Pyridoxine (VB6)],"Growth rate mm-in-diam, on agar",Hirsutella rhossiliensis; isolate ATCC46487,40.5 mm-in-diam
same,"Growth rate mm-in-diam, on agar",Hirsutella rhossiliensis; isolate JA16-1,17.2 mm-in-diam
same,"Growth rate mm-in-diam, on agar",Hirsutella rhossiliensis; isolate OWVT-1,29.5 mm-in-diam
same,"Spore germination %, on agar",Hirsutella rhossiliensis; isolate ATCC46487,74.4%
same,"Sporulation 10^3/cm^2, on agar",Hirsutella rhossiliensis; isolate ATCC46487,31.1 10^3/cm^2
same,growth in liquit culture (visual rating),Hirsutella rhossiliensis; isolate ATCC46487,"III (III = hyphae growth or colonies form a pellet, less than 2.5 ml)"
same,"Spore germination %, on agar",Hirsutella rhossiliensis; isolate JA16-1,90.0%
same,"Sporulation 10^3/cm^2, on agar",Hirsutella rhossiliensis; isolate JA16-1,16.5 10^3/cm^2
same,growth in liquit culture (visual rating),Hirsutella rhossiliensis; isolate JA16-1,I
same,"Spore germination %, on agar",Hirsutella rhossiliensis; isolate OWVT-1,50.0%
same,"Sporulation 10^3/cm^2, on agar",Hirsutella rhossiliensis; isolate OWVT-1,13.0 10^3/cm^2
Cc1ncc(C[n+]2csc(CCO)c2C)c(N)n1 [Thiamine (VB1)],"Growth rate mm-in-diam, on agar",Hirsutella rhossiliensis; isolate ATCC46487,38.5 mm-in-diam
same,"Growth rate mm-in-diam, on agar",Hirsutella rhossiliensis; isolate JA16-1,20.3 mm-in-diam
same,"Growth rate mm-in-diam, on agar",Hirsutella rhossiliensis; isolate OWVT-1,24.7 mm-in-diam
same,"Spore germination %, on agar",Hirsutella rhossiliensis; isolate ATCC46487,75.6%
same,"Sporulation 10^3/cm^2, on agar",Hirsutella rhossiliensis; isolate ATCC46487,30.1 10^3/cm^2
same,"Spore germination %, on agar",Hirsutella rhossiliensis; isolate JA16-1,91.1%
same,"Sporulation 10^3/cm^2, on agar",Hirsutella rhossiliensis; isolate JA16-1,30.4 10^3/cm^2
same,"Spore germination %, on agar",Hirsutella rhossiliensis; isolate OWVT-1,58.9%
same,"Sporulation 10^3/cm^2, on agar",Hirsutella rhossiliensis; isolate OWVT-1,15.7 10^3/cm^2

# — patent US7384629B2, “Biological control of nematodes with Hirsutella minnesotensis” (Regents of the University of Minnesota, priority 2000, dated 2008)
